Where “and” joins values, the source holds several entries; their conditions need not be identical. Equal values may be shown once.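 Grown in 96-well plates, cells were treated for 48 hours with each compound at five concentrations. Insufficient inhibition: endpoint recorded as highest concentration tested. GI50: concentration for 50% inhibition of growth. TGI: concentration producing complete growth inhibition.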 Where a SMILES comes first, the peptide text is derived from it. The star is where a group is joined. Boc = CC(C)(C)OC(=O)*; OBn = c1ccc(CO*)cc1
Key:
Experiment in all cases: DTP human tumour cell line panel, 48 h
[1] = system: OVCAR-4 ovarian
[2] = system: K-562 leukemia
[3] = system: NCI/ADR-RES ovarian
[4] = system: UACC-257 melanoma
[5] = system: CAKI-1 renal
[6] = system: MALME-3M melanoma
[7] = system: MDA-MB-435
[8] = system: SR leukemia
[9] = system: MDA-N
[10] = system: T-47D breast
[11] = system: OVCAR-3 ovarian
[12] = system: CCRF-CEM leukemia
[13] = system: A498 renal
[14] = system: SNB-75 CNS
[15] = system: NCI-H460 lung
[16] = system: SNB-19 CNS
[17] = system: UACC-62 melanoma
[18] = system: SK-MEL-5 melanoma
[19] = system: HCT-116 colon

Row | Compound | TGI [1] | TGI [2] | TGI [3] | TGI [4] | TGI [5] | TGI [6] | TGI [7] | TGI [8] | TGI [9] | TGI [10] | TGI [11] | TGI [12] | TGI [13] | TGI [14] | TGI [15] | TGI [16] | TGI [17] | TGI [18] | TGI [19] | GI50 [14]
1 | CN(C)C=Nc1c(Br)cc(Br)c2nonc12 | > 100 µM | > 100 µM | > 100 µM | > 100 µM | > 100 µM | > 100 µM | > 100 µM | > 100 µM | > 100 µM | > 100 µM | > 100 µM | > 100 µM | > 100 µM | > 100 µM | > 100 µM | > 100 µM | > 100 µM | > 100 µM | > 100 µM | –
2 | CCCCCCCCCCCCCCC[C@@H](O)C[N+](C)(C)CCO | 22.9 µM | > 100 µM | 34.3 µM | 49.2 µM | 4.1 µM | 15.4 µM | 33.4 µM | > 23.6 µM | 29.5 µM | 55.6 µM | > 93.6 µM | 11.5 µM | > 100 µM | 7.54 µM | 5.01 µM | 3.81 µM | 36.4 µM | 7.07 µM | > 62.1 µM | –
3 | CC(=O)[C@]1(C)[C@H](C)O[C@](C)(CO)[C@H]1O[Si](C)(C)c1ccccc1 | > 100 µM | > 100 µM | > 100 µM | > 100 µM | 54.2 µM | > 100 µM | > 100 µM | > 100 µM | > 100 µM | 97.9 µM | > 100 µM | > 100 µM | > 100 µM | > 100 µM | > 100 µM | > 100 µM | > 100 µM | > 100 µM | > 100 µM | –
4 | O=[N+]([O-])c1cc(C(F)(F)F)ccc1S(=O)(=O)N[C@@H]1CCCC[C@H]1NS(=O)(=O)c1ccc(C(F)(F)F)cc1[N+](=O)[O-] | 29.2 µM | > 36 µM | 10 µM | > 100 µM | 10 µM | 8.05 µM | 8.07 µM | > 26.2 µM | 21.6 µM | > 50.7 µM | 7.07 µM | 7.87 µM | > 23.7 µM | 7.46 µM | > 100 µM | > 31.6 µM | 13.4 µM | 8.15 µM | 20.1 µM | –
5 | O=c1c2ccccc2n2n1Cc1ccccc1C2 | > 100 µM | > 100 µM | > 100 µM | > 100 µM | > 100 µM | > 100 µM | > 100 µM | > 100 µM | > 100 µM | > 100 µM | > 100 µM | > 100 µM | > 100 µM | > 100 µM | > 100 µM | > 100 µM | > 100 µM | > 100 µM | > 100 µM | –
6 | CC(C)C(NC(=O)CNC(=O)C1CCCN1C(=O)C(NC(=O)OC(C)(C)C)C(C)C)C(=O)NCC(=O)OCc1ccccc1 (stereo not given) (Boc-VPGVG-OBn; configuration not given here) | > 100 µM | > 100 µM | > 100 µM | > 100 µM | > 100 µM | > 100 µM | > 100 µM | > 100 µM | > 100 µM | > 100 µM | > 100 µM | > 100 µM | > 100 µM | > 100 µM | > 100 µM | > 100 µM | > 100 µM | > 100 µM | > 100 µM | 35.3 µM and > 100 µM
7 | O=C1c2ccccc2-n2c1nc1cc(Cl)ccc1c2=O | > 100 µM | > 100 µM | > 100 µM | 29.1 µM | > 100 µM | 21.9 µM | 4.23 µM | > 100 µM | 29.1 µM | 48.8 µM | > 100 µM | 9.2 µM | > 100 µM | > 100 µM | > 100 µM | > 100 µM | 32.1 µM | 76.4 µM | > 100 µM | –
8 | CCOC(=O)c1nc2cc(C(F)(F)F)ccc2nc1Oc1ccc(C(=O)OC)cc1 | > 100 µM | > 100 µM | > 100 µM | > 100 µM | > 100 µM | > 100 µM | > 100 µM | > 100 µM | > 100 µM | > 100 µM | > 100 µM | > 100 µM | > 100 µM | > 100 µM | > 100 µM | > 100 µM | > 100 µM | > 100 µM | > 100 µM | –
9 | Nc1nc(Sc2ccc([N+](=O)[O-])cn2)c2[nH]cnc2n1 | > 61.2 µM | > 100 µM | 30.3 µM | > 100 µM | 71.7 µM | 36.1 µM | > 46.1 µM | > 100 µM | 34.6 µM | > 42.3 µM | > 75 µM | > 41.5 µM | 47.8 µM | 63.9 µM | > 64.9 µM | 72.1 µM | 11.6 µM | 31.2 µM | > 39.7 µM | –
10 | Cc1ccc(C(=O)c2[nH]c(Nc3ccc(Cl)cc3)c(C(=S)Nc3ccccc3)c2N)cc1 | 4.32 µM | 24 µM | 17.1 µM | 43.7 µM | 30.6 µM | 19.8 µM | 19.7 µM | 10.7 µM | 20.6 µM | > 100 µM | 56.8 µM | > 100 µM | 27.9 µM | 7.14 µM | 15.4 µM | 21.9 µM | 28.1 µM | – | 11 µM | –
11 | Cc1ccc(Nc2cc(=O)[nH]c(=O)[nH]2)cc1CS | > 100 µM | > 100 µM | > 100 µM | > 100 µM | > 100 µM | > 100 µM | > 100 µM | > 100 µM | > 100 µM | > 100 µM | > 100 µM | > 100 µM | > 100 µM | > 100 µM | > 100 µM | > 100 µM | > 100 µM | > 100 µM | > 100 µM | –
12 | COc1cc(S(=O)(=O)Nc2ccc(-c3csc(/N=C\C=C\c4ccccc4)n3)cc2)ccc1Cl | > 100 µM | > 100 µM | > 100 µM | > 100 µM | > 100 µM | > 100 µM | > 100 µM | > 100 µM | > 100 µM | 80.7 µM | > 100 µM | 50.4 µM | 50.5 µM | > 100 µM | > 100 µM | > 100 µM | > 100 µM | > 100 µM | > 100 µM | –
13 | CCOC(=O)NC(C(C(=O)OCC)C(=O)OCC)(C(F)(F)F)C(F)(F)F | > 100 µM | > 100 µM | > 100 µM | > 100 µM | > 100 µM | > 100 µM | > 100 µM | > 100 µM | > 100 µM | > 100 µM | > 100 µM | > 100 µM | > 100 µM | > 100 µM | > 100 µM | > 100 µM | > 100 µM | > 100 µM | > 100 µM | –
14 | CC(=O)OC(C#N)CC(C)(C)/[N+]([O-])=[N+](\[O-])C(C)(C)CC(C#N)OC(C)=O (stereo not given) | 33.9 µM | 26.2 µM | 79.3 µM | 37.8 µM | 30.7 µM | 47.4 µM | 33.8 µM | 48.3 µM | 30.3 µM | 50.2 µM | 40 µM | > 100 µM | > 100 µM | 63.8 µM | 35 µM | 67.6 µM | 32.2 µM | 33.9 µM | 20.9 µM | –
15 | N#Cc1nc(NC(=O)c2ccccc2)sc1N | > 10 µM | > 10 µM | > 10 µM | > 10 µM | > 10 µM | > 10 µM | > 10 µM | > 10 µM | > 10 µM | > 10 µM | > 10 µM | > 10 µM | > 10 µM | > 10 µM | > 10 µM | > 10 µM | > 10 µM | > 10 µM | > 10 µM | –
16 | O=C1Cc2c(-c3ccccc3)cc(-c3ccc4ccccc4c3)nc2-c2ccccc2N1 | > 100 µM | 9.41 µM | > 100 µM | > 100 µM | 12.5 µM | 31.9 µM | > 100 µM | > 100 µM | > 100 µM | > 100 µM | 27.6 µM | > 100 µM | 49.6 µM | 5.38 µM | 87.6 µM | > 100 µM | > 100 µM | > 100 µM | > 100 µM | –
17 | CC(C)N(C(=O)c1ccc(NCc2cc(O)ccc2O)cc1)C(C)C | 28.3 µM | > 100 µM | 42.9 µM | 31.4 µM | 27.2 µM | 28.9 µM | 40.9 µM | > 100 µM | 42 µM | 40.7 µM | 25.1 µM | > 100 µM | 62.2 µM | > 100 µM | 34.6 µM | 58.6 µM | 28.9 µM | 37.8 µM | 29.6 µM | –
18 | Cc1ccc(Cc2nn(C)c(=O)n2-n2cccc2)cc1 | > 100 µM | > 100 µM | > 100 µM | > 100 µM | > 100 µM | > 100 µM | > 100 µM | > 100 µM | > 100 µM | > 100 µM | > 100 µM | > 100 µM | > 100 µM | > 100 µM | > 100 µM | > 100 µM | > 100 µM | > 100 µM | > 100 µM | –
19 | Nc1ccc(-c2nc3ccccc3s2)cc1I | > 100 µM | > 100 µM | > 100 µM | > 100 µM | > 100 µM | > 100 µM | > 100 µM | > 100 µM | > 100 µM | > 100 µM | > 100 µM | > 46.4 µM | > 90.8 µM | 99.4 µM | > 100 µM | > 100 µM | > 100 µM | > 100 µM | – | –
